Experimental data: patent US12448383B2, “Compounds and methods for treatment of viral infections” (priority 2022, dated 2025)

How the values were obtained:
[1] = test system: Respiratory syncytial virus recombinant with luciferase (RSV-Luc5) in HEp-2 cells; assay: microbe, parasite or virus in culture; assay type: cell-based; details: human respiratory syncytial virus, HEp-2, read-out: EC50 RSVFluc-Hep2 384 V2
[2] = test system: Respiratory syncytial virus recombinant with luciferase (RSV-Luc5) in Normal Human Bronchial Epithelial (NHBE) cells; assay: microbe, parasite or virus in culture; assay type: cell-based; details: read-out: EC50 RSVFluc-NHBE 384 V2
[3] = CC50 MT4 cytotoxicity (Cell-Titer Glo); assay type: cell-based; details: human
In short: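 Uninfected MT-4 and HEp-2 cells cultured 4-5 days at 37° C with 3-fold serially diluted compound (15 nM to 100,000 nM). Viability read by Cell-Titer Glo luminescence; untreated and 2 μM puromycin wells set 100% and 0%. CC50 from non-linear regression as concentration reducing viability by 50%.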

[4] = test system: SARS Coronavirus 2 recombinant with NanoLuc (SARS-CoV2-NLuc) in A549-hACE2 cells; assay: microbe, parasite or virus in culture; assay type: cell-based; details: A549; read-out: EC50 SARS CoV2 NanoLuc A549 384
[5] = GI S9 stability - no PMSF; assay type: in vitro ADME; set-up: GIS9-HUMAN-NoPMSF T1/2: unit: min; details: human intestinal S9, PMSF-free; for half-life at 2 µM: pH 7.4, read-out: GIS9-HUMAN-NoPMSF T1/2
In short: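 Compounds were incubated at 2 μM with PMSF-free intestinal S9 (1 mg/mL protein) in 100 mM PBS, pH 7.4, sampling at 6 time points over 120 min. Parent disappearance and formation of the nucleoside metabolite Reference Compound A were quantified by LC-MS (Q-Exactive) using analyte/internal standard peak area ratios.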

Plasma stability = assay type: in vitro ADME; set-up: unit not given here; details: 37° C., 2 μM substrate
In short: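 Reaction mixture was sampled at 0.05, 0.5, 1, 2, 3 and 4 hr into quench solution containing internal standard, then centrifuged and diluted with water. Remaining analyte was measured by LC-MS on a Q-Exactive using a formic acid/acetonitrile gradient, with 5 ppm mass tolerance.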

[6] = test system: Caco-2 cells (clone C2BBe1); assay: CACO-2 permeability; assay type: in vitro ADME; set-up: unit not given here; details: for DM Caco2 A to B: apical to basolateral, donor pH 6.5, receiver pH 7.4; for DM Caco2 B to A: basolateral to apical
In short: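 Caco-2 monolayers grown 21 days on collagen-coated transwells and checked for integrity by TEER. Donor buffer was HBSS/HEPES/glucose pH 6.5 with 200 μM BNPP; receiver was pH 7.4 with BSA. Compounds were dosed apically or basolaterally for A-to-B and B-to-A transport, with receiver sampling at 1 and 2 h, LC-MS/MS analysis and percent recovery.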

SMILES	EC50 [1]	EC50 [2]	CC50 [3]	logD (physchem)	EC50 [4]	half-life at 2 µM [5]	STA Human Plasma 37 (Plasma stability)	DM Caco2 A to B [6]	DM Caco2 B to A [6]	GIS9-HUMAN-NoPMSF T1/2 [5]
N#C[C@@]1(c2ccc3c(N)ncnn23)O[C@H](COC(=O)OCOP(=O)(O)O)[C@@H](O)[C@H]1O [Compound 40, ((2R,3S,4R,5R)-5-(4-aminopyrrolo[2,1-f][1,2,4]triazin-7-yl)-5-cyano-3,4-dihydroaytetrahydrofuran-2-yl)methyl ((phosphonooxy)methyl) carbonate]	3.55 µM	3.69 µM	> 50 µM	< 0.3	–	–	–	–	–	–
COC(=O)Nc1ncnn2c([C@]3(C#N)O[C@H](COC(=O)OCC(C)(C)C)[C@@H](OC(=O)OC)[C@H]3OC(=O)OC)ccc12 [Compound 103, methyl (7-((2R,3R,4R,5R)-2-cyano-3,4-bis((methoxycarbonyl)oxy)-5-((((neopentyloxy)carbonyl)oxy)methyl)tetrahydrofuran-2-yl)pyrrolo[2,1-f][1,2,4]triazin-4-yl)carbamate]	20.7 µM	17.7 µM	> 50 µM	3.2	> 50000 nM	–	–	–	–	–
COC1O[C@H]2[C@@H](O1)[C@](C#N)(c1ccc3c(N)ncnn13)O[C@@H]2COC(=O)OC(C)C (stereo partly drawn) [Compound 107, ((3aR,4R,6R,6aR)-6-(4-aminopyrrolo[2,1-f][1,2,4]triazin-7-yl)-6-cyano-2-methoxytetrahydrofuro[3,4-d][1,3]dioxol-4-yl)methyl isopropyl carbonate]	> 50 µM	> 50 µM	> 50 µM	2.5	> 50000 nM	–	–	–	–	–
CC(C)(C)OP(=O)(OCOC(=O)OC[C@H]1O[C@@](C#N)(c2ccc3c(N)ncnn23)[C@H](O)[C@@H]1O)OC(C)(C)C [Compound 110, ((2R,3S,4R,5R)-5-(4-aminopyrrolo[2,1-f][1,2,4]triazin-7-yl)-5-cyano-3,4-dihydroxytetrahydrofuran-2-yl)methyl (((di-tert-butoxyphosphoryl)oxy)methyl) carbonate]	10.8 µM	20.4 µM	> 50 µM	1.7	–	–	–	–	–	–
CC1(COC(=O)OC[C@H]2O[C@@](C#N)(c3ccc4c(N)ncnn34)[C@H](O)[C@@H]2O)CCC1 [Compound 122, ((2R,3S,4R,5R)-5-(4-aminopyrrolo[2,1-f][1,2,4]triazin-7-yl)-5-cyano-3,4-dihydroxytetrahydrofuran-2-yl)methyl ((1-methylcyclobutyl)methyl) carbonate]	0.29 µM	1.04 µM	> 50 µM	1.9	707 nM	0.637 min	34.1	–	–	–
N#C[C@@]1(c2ccc3c(N)ncnn23)O[C@H](COC(=O)OCC2CC2)[C@@H](O)[C@H]1O [Compound 125, ((2R,3S,4R,5R)-5-(4-aminopyrrolo[2,1-f][1,2,4]triazin-7-yl)-5-cyano-3,4-dihydroxytetrahydrofuran-2-yl)methyl (cyclopropylmethyl) carbonate]	0.22 µM	0.645 µM	> 50 µM	1.1	1790 nM	0.582 min	12.2	–	–	–
CCCCCCCCCCCCCCCCCCOC(=O)OC[C@H]1O[C@@](C#N)(c2ccc3c(N)ncnn23)[C@H](O)[C@@H]1O [Compound 126, ((2R,3S,4R,5R)-5-(4-aminopyrrolo[2,1-f][1,2,4]triazin-7-yl)-5-cyano-3,4-dihydroxytetrahydrofuran-2-yl)methyl octadecyl carbonate]	–	0.517 µM	27.7 µM	> 5.7	1610 nM	97.6 min	79.1	0.01	0.03	–
N#C[C@@]1(c2ccc3c(N)ncnn23)O[C@H](COC(=O)OC23CC(C(F)(F)F)(C2)C3)[C@@H](O)[C@H]1O [Compound 139, [(2R,3S,4R,5R)-5-(4-aminopyrrolo[2,1-f][1,2,4]triazin-7-yl)-5-cyano-3,4-dihydroxy-tetrahydrofuran-2-yl]methyl [3-(trifluoromethyl)-1-bicyclo[1.1.1]pentanyl]carbonate]	–	1.64 µM	> 50 µM	2.2	–	1.37 min	150.07	0.99	12.98	–
N#C[C@@]1(c2ccc3c(N)ncnn23)O[C@H](COC(=O)OCCCCCC(=O)O)[C@@H](O)[C@H]1O [Compound 140, 6-(((((2R,3S,4R,5R)-5-(4-aminopyrrolo[2,1-f][1,2,4]triazin-7-yl)-5-cyano-3,4-dihydroxytetrahydrofuran-2-yl)methoxy)carbonyl)oxy)hexanoic acid]	–	> 50 µM	> 50 µM	< 0.3	> 50000 nM	783 min	1322.1	0.04	0.12	–
N#C[C@@]1(c2ccc3c(N)ncnn23)O[C@H](COC(=O)OCCCC(=O)O)[C@@H](O)[C@H]1O [Compound 141, 4-(((((2R,3S,4R,5R)-5-(4-aminopyrrolo[2,1-f][1,2,4]triazin-7-yl)-5-cyano-3,4-dihydroxytetrahydrofuran-2-yl)methoxy)carbonyl)oxy)butanoic acid]	–	> 50 µM	> 50 µM	< 0.3	> 50000 nM	–	902.37	0.05	0.08	789
N#C[C@@]1(c2ccc3c(N)ncnn23)O[C@H](COC(=O)OCCCCC(=O)O)[C@@H](O)[C@H]1O [Compound 142, 5-(((((2R,3S,4R,5R)-5-(4-aminopyrrolo[2,1-f][1,2,4]triazin-7-yl)-5-cyano-3,4-dihydroxytetrahydrofuran-2-yl)methoxy)carbonyl)oxy)pentanoic acid]	–	> 50 µM	> 50 µM	< 0.3	> 50000 nM	–	1584	0.02	0.07	789
N#C[C@@]1(c2ccc3c(N)ncnn23)O[C@H](COC(=O)OCCCCCCC(=O)O)[C@@H](O)[C@H]1O [Compound 143, 7-(((((2R,3S,4R,5R)-5-(4-aminopyrrolo[2,1-f][1,2,4]triazin-7-yl)-5-cyano-3,4-dihydroxytetrahydrofuran-2-yl)methoxy)carbonyl)oxy)heptanoic acid]	–	> 50 µM	> 50 µM	< 0.3	35400 nM	–	800.58	–	–	789
CC(C)OC(=O)[C@H](CCOC(=O)OC[C@H]1O[C@@](C#N)(c2ccc3c(N)ncnn23)[C@H](O)[C@@H]1O)N(C)C [Compound 146, isopropyl (2S)-4-[[(2R,3S,4R,5R)-5-(4-aminopyrrolo[2,1-f][1,2,4]triazin-7-yl)-5-cyano-3,4-dihydroxy-tetrahydrofuran-2-yl]methoxycarbonyloxy]-2-(dimethylamino)butanoate]	–	8.25 µM	> 50 µM	1.5	7680 nM	174 min	497.93	0.06	7.15	–
CC(C)OC(=O)[C@H](COC(=O)OC[C@H]1O[C@@](C#N)(c2ccc3c(N)ncnn23)[C@H](O)[C@@H]1O)N(C)C [Compound 151, isopropyl O-((((2R,3S,4R,5R)-5-(4-aminopyrrolo[2,1-f][1,2,4]triazin-7-yl)-5-cyano-3,4-dihydroxytetrahydrofuran-2-yl)methoxy)carbonyl)-N,N-dimethyl-L-serinate]	–	2.89 µM	> 50 µM	1.3	2760 nM	–	–	–	–	–
CN(C)[C@@H](COC(=O)OC[C@H]1O[C@@](C#N)(c2ccc3c(N)ncnn23)[C@H](O)[C@@H]1O)C(=O)OCC1CCCC1 [Compound 152, cyclopentylmethyl O-((((2R,3S,4R,5R)-5-(4-aminopyrrolo[2,1-f][1,2,4]triazin-7-yl)-5-cyano-3,4-dihydroxytetrahydrofuran-2-yl)methoxy)carbonyl)-N,N-dimethyl-L-serinate]	–	3.63 µM	> 50 µM	2.2	1280 nM	–	–	–	–	–
CN(C)[C@@H](COC(=O)OC[C@H]1O[C@@](C#N)(c2ccc3c(N)ncnn23)[C@H](O)[C@@H]1O)C(=O)OC1CCCC1 [Compound 153, cyclopentyl O-((((2R,3S,4R,5R)-5-(4-aminopyrrolo[2,1-f][1,2,4]triazin-7-yl)-5-cyano-3,4-dihydroxytetrahydrofuran-2-yl)methoxy)carbonyl)-N,N-dimethyl-L-serinate]	–	3.24 µM	> 50 µM	1.7	2670 nM	–	–	–	–	–
